Consider 4 compounds from patent US20240287429A1, “MEDICINAL AGENT EFFECT PREDICTION SYSTEM” (Tohoku Institute of Technology, priority 2021, published 2024).

One data set deals with peripheral nerves. The conditions noted are these: stated as known; not the applicant's own test; cited from earlier work.
Data set [1] deals with neurites growing from nerve cells (rat DRG cells). Kind of data set: assessment by medicinal agent effect prediction system: microscope image of neurites cultured in the microfluidic device, applied to learned model M1. It is filed as cell-based. The conditions noted are these: image of FIG. 10 applied to learned model M1; result shown in FIG. 11. The text has this:
FIG. 7A to FIG. 7D are observation images obtained by culturing nerve cells 41 in the microfluidic devices 30 using culture solutions respectively containing different known substances and observing, with a microscope, neurites 42 located in the second culture spaces 37. It should be noted that rat DRG cells are herein used as nerve cells 41, but various cells such as mouse DRG cells, human ES cells, or human iPS cells can be used.
Then, neurites 42 growing from the nerve cells 41 and located in the second culture space 37 were observed by the microscope 50 to obtain an observation image.
Image data based on the observation image was input as input data for assessment i42t to the system 10 through the data input receiving unit 11. In the system 10, the assessment unit 15 applied the input data for assessment i42t to the learned model M1. That is, features based on the input data for assessment i42t were applied to the input layer of the learned model M1. As a result, the result of assessment shown in FIG. 11 was output from the display output unit 17.
The percentage of correct answers is further improved by increasing the number of samples of teaching data and the number of times of learning.

With `O=C1[O][Pt]2([NH][C@@H]3CCCC[C@H]3[NH]2)[O]C1=O` [Oxaliplatin], the “impairment of peripheral nerves the substance is known to cause” value (from here on “impairment”) in the data set on peripheral nerves is reported as “neuronopathy”.

Consider `CC(=O)O[C@H]1C(=O)[C@@]2(C)[C@H]([C@H](OC(=O)c3ccccc3)[C@]3(O)C[C@H](OC(=O)[C@H](O)[C@@H](NC(=O)c4ccccc4)c4ccccc4)C(C)=C1C3(C)C)[C@]1(OC(C)=O)CO[C@@H]1C[C@@H]2O` [Paclitaxel], for which the “result of assessment (impaired nerve site predicted by the system)” value in data set [1] is “high possibility of causing axonopathy”.

As to `OC[C@H]1O[C@@](CO)(O[C@H]2O[C@H](CO)[C@@H](O)[C@H](O)[C@H]2O)[C@@H](O)[C@@H]1O` [Sucrose], the “impairment” value in the data set with peripheral nerves was “not to be toxic to peripheral nerves”.

On to `CC[C@]1(O)C[C@H]2CN(CCc3c([nH]c4ccccc34)[C@@](C(=O)OC)(c3cc4c(cc3OC)N(C=O)[C@H]3[C@@](O)(C(=O)OC)[C@H](OC(C)=O)[C@]5(CC)C=CCN6CC[C@]43[C@@H]65)C2)C1` [Vincristine], for which, in the data set with peripheral nerves, the “impairment” value is “axonopathy”.
